{"source": "patent US20150045291A1", "about": "“LIPOPEPTIDE CONJUGATES COMPRISING SPHINGOLIPID AND HIV GP41 DERIVED PEPTIDES” (priority 2012, published 2015)", "system": "fully infectious HIV-1 HXB2", "conditions": "for IC90: read-out: IC90 (nM), […]", "key": {"[1]": {"conditions": "read-out: IC50 (nM), […], fully infectious HIV-1 system (Table 3)"}, "[2]": {"conditions": "fully infectious HIV-1 system (Table 3)"}, "[3]": {"conditions": "fully infectious HIV-1 system (Table 2)"}, "[4]": {"conditions": "read-out: IC50 (inhibitory concentration at 50% infectivity), TZM-bl cells, fully contagious HXB2 HIV-1"}}, "note": "Like-named read-outs stand apart in the source and are kept apart here. Starred links: 1 amine or outer side, 2 acyl side, 3 side chain; linkers in the order of their positions; H or OH if unused. Residues, ends and D or L forms follow the SMILES beside them. Groups on a side chain read outwards from the residue. *: point of attachment. Sphinganine = CCCCCCCCCCCCCCC[C@@H](O)[C@H](CO)N*; X2 = CCCCCCCCCCCCC/C=C/[C@@H](O)[C@H](CO)N*; CO = O=C([*:1])[*:2]"}
{"smiles": "CCCCCCCCCCCCCCC[C@@H](O)[C@H](CO)NC(=O)NCCCC[C@H](NC(=O)[C@@H](NC(=O)[C@H](Cc1ccc(O)cc1)NC(=O)[C@H](CC(N)=O)NC(=O)[C@H](CC(N)=O)NC(=O)[C@@H](NC(=O)[C@H](CCC(=O)O)NC(=O)[C@H](CCCNC(=N)N)NC(=O)[C@H](CC(=O)O)NC(=O)[C@H](Cc1c[nH]c2ccccc12)NC(=O)[C@H](CCC(=O)O)NC(=O)[C@H](CCSC)NC(=O)[C@H](Cc1c[nH]c2ccccc12)NC(=O)[C@@H](NC(=O)[C@@H](N)[C@@H](C)O)[C@@H](C)O)[C@@H](C)CC)[C@@H](C)O)C(N)=O", "note": "[PBDK-Sphing, TTWMEWDREINNYTK-Sphinganine] (H-TTWMEWDREINNYTK([CO-Sphinganine])-NH2; N-terminus assumed)", "values": [{"measurement": "IC50", "setting": "[1]", "result": "467 ± 140", "unit": "nM"}, {"measurement": "IC90", "setting": "[2]", "result": "1090 ± 100", "unit": "nM"}]}
{"smiles": "CCCCCCCCCCCCCCC[C@@H](O)[C@H](CO)NC(=O)NCCCC[C@H](NC(=O)[C@H](CC(N)=O)NC(=O)[C@H](Cc1c[nH]c2ccccc12)NC(=O)[C@H](CCSC)NC(=O)[C@H](Cc1ccc(O)cc1)NC(=O)[C@H](CC(N)=O)NC(=O)[C@@H](NC(=O)[C@H](CC(=O)O)NC(=O)[C@H](CCC(=O)O)NC(=O)[C@H](CCCNC(=N)N)NC(=O)[C@H](Cc1c[nH]c2ccccc12)NC(=O)[C@@H](NC(=O)[C@H](CCC(=O)O)NC(=O)[C@@H](NC(=O)[C@@H](N)[C@@H](C)O)[C@@H](C)O)[C@@H](C)CC)[C@@H](C)O)C(N)=O", "note": "[Scrambled-Sphing, TTEIWREDTNYMWNK-sphing] (H-TTEIWREDTNYMWNK([CO-Sphinganine])-NH2; N-terminus assumed)", "values": [{"measurement": "IC50", "setting": "[1]", "result": "895 ± 70", "unit": "nM"}, {"measurement": "IC90", "setting": "[2]", "result": "6260 ± 3670", "unit": "nM"}]}
{"smiles": "CCCCCCCCCCCCCCC[C@@H](O)[C@H](CO)NC(=O)N[C@@H](CC(C)C)C(=O)N[C@@H](CC(C)C)C(=O)N[C@@H](CCC(N)=O)C(=O)N[C@@H](CC(C)C)C(=O)N[C@H](C(=O)N[C@H](C(=O)N[C@@H](Cc1c[nH]c2ccccc12)C(=O)NCC(=O)N[C@H](C(=O)N[C@@H](CCCCN)C(=O)N[C@@H](CCC(N)=O)C(=O)N[C@@H](CC(C)C)C(=O)N[C@@H](CCC(N)=O)C(=O)N[C@@H](C)C(N)=O)[C@@H](C)CC)C(C)C)[C@@H](C)O", "note": "[Sphing-N14, Sphinganine-LLQLTVWGIKQLQA] ({Sphinganine-CO}-LLQLTVWGIKQLQA-NH2)", "values": [{"measurement": "IC50", "setting": "[3]", "result": "500 ± 100", "unit": "nM"}]}
{"smiles": "CCCCCCCCCCCCCCC[C@@H](O)[C@H](CO)NC(=O)N[C@@H](CCC(N)=O)C(=O)N[C@@H](CCCCN)C(=O)N[C@H](C(=O)N[C@@H](C)C(=O)N[C@@H](CCCNC(=N)N)C(=O)N[C@@H](CC(C)C)C(=O)N[C@@H](CCC(N)=O)C(=O)N[C@H](C(=O)N[C@@H](CC(C)C)C(=O)N[C@@H](Cc1c[nH]c2ccccc12)C(=O)N[C@@H](CC(C)C)C(=O)N[C@@H](CCC(N)=O)C(=O)N[C@H](C(=O)NCC(=O)N[C@H](C(=O)N[C@@H](CC(C)C)C(=O)N[C@@H](CC(C)C)C(N)=O)C(C)C)[C@@H](C)CC)[C@@H](C)O)[C@@H](C)CC", "note": "[Sphing-N17 scrambled] ({Sphinganine-CO}-QKIARLQTLWLQIGVLL-NH2)", "values": [{"measurement": "IC50", "setting": "[3]", "result": "> 4000", "unit": "nM"}]}
{"smiles": "CCCCCCCCCCCCCCC[C@@H](O)[C@H](CO)NC(=O)N[C@@H](CC(C)C)C(=O)N[C@@H](CC(C)C)C(=O)N[C@@H](CCC(N)=O)C(=O)N[C@@H](CC(C)C)C(=O)N[C@H](C(=O)N[C@H](C(=O)N[C@@H](Cc1c[nH]c2ccccc12)C(=O)NCC(=O)N[C@H](C(=O)N[C@@H](CCCCN)C(=O)N[C@@H](CCC(N)=O)C(=O)N[C@@H](CC(C)C)C(=O)N[C@@H](CCC(N)=O)C(=O)N[C@@H](C)C(=O)N[C@@H](CCCNC(=N)N)C(=O)N[C@H](C(=O)N[C@@H](CC(C)C)C(=O)N[C@@H](CCCCN)C(N)=O)[C@@H](C)CC)[C@@H](C)CC)C(C)C)[C@@H](C)O", "note": "[Sphing-N17K, Sphinganine-LLQLTVWGIKQLQARILK] ({Sphinganine-CO}-LLQLTVWGIKQLQARILK-NH2)", "values": [{"measurement": "IC50", "setting": "[3]", "result": "118 ± 18", "unit": "nM"}, {"measurement": "IC50", "setting": "[4]", "result": 116, "unit": "nM"}]}
{"smiles": "CCCCCCCCCCCCCCC[C@@H](O)[C@H](CO)NC(=O)N[C@@H](CC(C)C)C(=O)N[C@@H](CCC(=O)O)C(=O)N[C@@H](CCC(N)=O)C(=O)N[C@@H](CC(C)C)C(=O)N[C@@H](CO)C(=O)N[C@H](C(=O)N[C@@H](Cc1c[nH]c2ccccc12)C(=O)NCC(=O)N[C@@H](CO)C(=O)N[C@@H](CCCCN)C(=O)N[C@@H](CCC(N)=O)C(=O)N[C@@H](CC(N)=O)C(=O)N[C@@H](CCC(N)=O)C(=O)N[C@@H](C)C(=O)N[C@@H](CCCNC(=N)N)C(=O)N[C@@H](CCCNC(=N)N)C(=O)N[C@@H](CC(C)C)C(N)=O)C(C)C", "note": "[Sphing-N17mut (a, d)] ({Sphinganine-CO}-LEQLSVWGSKQNQARRL-NH2)", "values": [{"measurement": "IC50", "setting": "[3]", "result": "> 4000", "unit": "nM"}]}
{"smiles": "CCCCCCCCCCCCCCC[C@@H](O)[C@H](CO)NC(=O)N[C@@H](CCC(=O)O)C(=O)N[C@@H](CC(C)C)C(=O)N[C@@H](CCC(N)=O)C(=O)N[C@@H](CC(C)C)C(=O)N[C@H](C(=O)N[C@@H](CCC(N)=O)C(=O)N[C@@H](Cc1c[nH]c2ccccc12)C(=O)N[C@@H](CCCCN)C(=O)N[C@H](C(=O)N[C@@H](CCCCN)C(=O)N[C@@H](CCC(N)=O)C(=O)N[C@@H](CC(C)C)C(=O)N[C@@H](CC(C)C)C(=O)N[C@@H](C)C(=O)N[C@@H](CCCNC(=N)N)C(=O)N[C@H](C(=O)N[C@@H](CC(C)C)C(=O)N[C@@H](CCCCN)C(N)=O)[C@@H](C)CC)[C@@H](C)CC)[C@@H](C)O", "note": "[Sphing-N17mut (e, g) K, Sphinganine-ELQLTQWKIKQLLARILK] ({Sphinganine-CO}-ELQLTQWKIKQLLARILK-NH2)", "values": [{"measurement": "IC50", "setting": "[3]", "result": "120 ± 30", "unit": "nM"}]}
{"smiles": "CCCCCCCCCCCCCCC[C@@H](O)[C@H](CO)NC(=O)N[C@@H](CC(C)C)C(=O)N[C@@H](CCC(N)=O)C(=O)N[C@@H](C)C(=O)N[C@@H](CCCNC(=N)N)C(=O)N[C@H](C(=O)N[C@@H](CC(C)C)C(=O)N[C@@H](C)C(=O)N[C@H](C(=O)N[C@@H](CCC(=O)O)C(=O)N[C@@H](CCCNC(=N)N)C(=O)N[C@@H](Cc1ccc(O)cc1)C(=O)N[C@@H](CC(C)C)C(=O)N[C@@H](CCCCN)C(=O)N[C@@H](CC(=O)O)C(=O)N[C@@H](CCC(N)=O)C(=O)N[C@@H](CCC(N)=O)C(=O)N[C@@H](CC(C)C)C(N)=O)C(C)C)[C@@H](C)CC", "note": "[Sphing-ShN17, Sphinganine-LQARILAVERYLKDQQL] ({Sphinganine-CO}-LQARILAVERYLKDQQL-NH2)", "values": [{"measurement": "IC50", "setting": "[3]", "result": "886 ± 102", "unit": "nM"}]}
{"smiles": "CCCCCCCCCCCCC/C=C/[C@@H](O)[C@H](CO)NC(=O)N[C@@H](CC(C)C)C(=O)N[C@@H](CC(C)C)C(=O)N[C@@H](CCC(N)=O)C(=O)N[C@@H](CC(C)C)C(=O)N[C@H](C(=O)N[C@H](C(=O)N[C@@H](Cc1c[nH]c2ccccc12)C(=O)NCC(=O)N[C@H](C(=O)N[C@@H](CCCCN)C(=O)N[C@@H](CCC(N)=O)C(=O)N[C@@H](CC(C)C)C(=O)N[C@@H](CCC(N)=O)C(=O)N[C@@H](C)C(=O)N[C@@H](CCCNC(=N)N)C(=O)N[C@H](C(=O)N[C@@H](CC(C)C)C(N)=O)[C@@H](C)CC)[C@@H](C)CC)C(C)C)[C@@H](C)O", "note": "[Sphingosine-N17, Sphingosine-LLQLTVWGIKQLQARIL] ({X2-CO}-LLQLTVWGIKQLQARIL-NH2)", "values": [{"measurement": "IC50", "setting": "[4]", "result": 208, "unit": "nM"}]}
{"smiles": "CCCCCCCCCCCCCCC[C@@H](O)[C@H](CO)NC(=O)NCCCC[C@H](NC(=O)[C@@H](NC(=O)[C@H](CCC(=O)O)NC(=O)[C@H](CCCNC(=N)N)NC(=O)[C@H](CC(=O)O)NC(=O)[C@H](Cc1c[nH]c2ccccc12)NC(=O)[C@H](CCC(=O)O)NC(=O)[C@H](CCSC)NC(=O)[C@H](Cc1c[nH]c2ccccc12)NC(=O)[C@@H](N)[C@@H](C)O)[C@@H](C)CC)C(N)=O", "note": "[Truncated-Sphing, TWMEWDREIK-Sphinganine] (H-TWMEWDREIK([CO-Sphinganine])-NH2; N-terminus assumed)", "values": [{"measurement": "IC50", "setting": "[1]", "result": "1330 ± 270", "unit": "nM"}, {"measurement": "IC90", "setting": "[2]", "result": "2480 ± 320", "unit": "nM"}]}
{"smiles": "CCCCCCCCCCCCCCC[C@@H](O)[C@@H](N)CO", "note": "[sphinganine, D-erythro-Dihydrosphingosine, reference compound]", "values": [{"measurement": "Effect on viral infectivity / fusion (in words)", "setting": "at / up to 1 μM", "result": "did not affect viral infectivity"}]}
